The values below come from US20120245154A1, “SUBSTITUTED AMINOTHIAZINE DERIVATIVE” (SHIONOGI & CO., LTD., priority 2009, published 2012).

One data set concerns the target T1, CYP1A2 (Homo sapiens, UniProt P05177).
T1 construct: enzyme, pooled human hepatic microsome 0.2 mg protein/mL; from tissue; host or cells: pooled human hepatic microsomes
T1 sequence (P05177 1-516): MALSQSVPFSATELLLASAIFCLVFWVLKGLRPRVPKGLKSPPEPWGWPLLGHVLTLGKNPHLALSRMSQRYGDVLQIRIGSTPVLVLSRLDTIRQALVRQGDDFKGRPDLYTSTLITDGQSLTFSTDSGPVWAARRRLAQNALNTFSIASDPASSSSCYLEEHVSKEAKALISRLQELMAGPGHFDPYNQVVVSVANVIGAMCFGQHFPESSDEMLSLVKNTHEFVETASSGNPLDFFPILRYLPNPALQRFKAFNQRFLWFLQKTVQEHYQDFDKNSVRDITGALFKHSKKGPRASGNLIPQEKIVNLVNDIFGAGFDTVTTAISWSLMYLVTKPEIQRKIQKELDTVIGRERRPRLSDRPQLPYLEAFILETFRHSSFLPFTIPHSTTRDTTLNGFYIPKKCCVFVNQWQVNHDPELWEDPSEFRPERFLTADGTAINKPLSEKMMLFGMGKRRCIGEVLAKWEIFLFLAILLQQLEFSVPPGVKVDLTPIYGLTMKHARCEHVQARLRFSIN
The data set is described as follows: CYP inhibition test (7-ethoxyresorufin O-deethylation). The format is in vitro ADME. Conditions: pooled human hepatic microsome, 0.5 μmol/L ethoxyresorufin. As to the method: (§1) Using commercially available pooled human hepatic microsome, and employing, as markers, 7-ethoxyresorufin O-deethylation (CYP1A2), tolbutamide methyl-hydroxylation (CYP2C9), mephenyloin 4′-hydroxylation (CYP2C19), dextromethorphan O-demethylation (CYP2D6), and terfenedine hydroxylation (CYP3A4) as typical substrate metabolism reactions of human main five CYP enzyme forms (CYP1A2, 2C9, 2C19, 2D6, 3A4), an inhibitory degree of each metabolite production amount by a test compound was assessed. […]
(§2) Each five kinds of substrates, human hepatic microsome, or a test drug in 50 mM Hepes buffer as a reaction solution was added to a 96-well plate at the composition as described above, NADPH, as a cofactor was added to initiate metabolism reactions as markers and, after the incubation at 37° C. for 15 minutes, a methanol/acetonitrile=1/1 (v/v) solution was added to stop the reaction. After the centrifugation at 3000 rpm for 15 minutes, resorufin (CYP1A2 metabolite) in the supernatant was quantified by a fluorescent multilabel counter and tributamide hydroxide (CYP2CP metabolite), mephenyloin 4′ hydroxide (CYP2C19 metabolite), […], and terfenadine alcohol (CYP3A4 metabolite) were quantified by LC/MS/MS. […]

The next data set addresses T2, CYP2C9 (Homo sapiens, UniProt P11712).
T2 construct: enzyme, pooled human hepatic microsome 0.2 mg protein/mL; from tissue; host or cells: pooled human hepatic microsomes
The data set is described as follows: CYP inhibition test (tolbutamide methyl-hydroxylation). In kind it is in vitro ADME. To be noted: pooled human hepatic microsome. As to the method: as §1, §2

The target of another data set is T3, CYP2C19 (Homo sapiens, UniProt P33261).
T3 construct: enzyme, pooled human hepatic microsome 0.2 mg protein/mL; from tissue; host or cells: pooled human hepatic microsomes
T3 sequence (P33261 whole entry): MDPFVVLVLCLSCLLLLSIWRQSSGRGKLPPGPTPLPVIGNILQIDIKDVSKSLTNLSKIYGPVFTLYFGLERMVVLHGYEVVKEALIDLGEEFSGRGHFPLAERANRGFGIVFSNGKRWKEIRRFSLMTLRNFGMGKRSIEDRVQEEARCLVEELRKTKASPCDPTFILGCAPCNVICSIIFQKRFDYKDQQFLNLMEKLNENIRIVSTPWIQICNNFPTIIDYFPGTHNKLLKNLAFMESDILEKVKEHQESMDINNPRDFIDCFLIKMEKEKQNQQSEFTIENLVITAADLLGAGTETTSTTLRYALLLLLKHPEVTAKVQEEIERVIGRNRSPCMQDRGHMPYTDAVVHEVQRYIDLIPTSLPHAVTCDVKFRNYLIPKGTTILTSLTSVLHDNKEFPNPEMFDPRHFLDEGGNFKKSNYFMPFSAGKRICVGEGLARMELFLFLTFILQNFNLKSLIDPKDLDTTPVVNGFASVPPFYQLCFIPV
The data set is described as follows: CYP inhibition test (mephenyloin 4′-hydroxylation). In kind it is in vitro ADME. To be noted: pooled human hepatic microsome, 50 μmol/L S-mephenitoin. As to the method:
as §1, §2

The target in a further data set is T4, CYP2D6 (Homo sapiens, UniProt P10635).
T4 construct: enzyme, pooled human hepatic microsome 0.2 mg protein/mL; from tissue; host or cells: pooled human hepatic microsomes
T4 sequence (P10635 whole entry): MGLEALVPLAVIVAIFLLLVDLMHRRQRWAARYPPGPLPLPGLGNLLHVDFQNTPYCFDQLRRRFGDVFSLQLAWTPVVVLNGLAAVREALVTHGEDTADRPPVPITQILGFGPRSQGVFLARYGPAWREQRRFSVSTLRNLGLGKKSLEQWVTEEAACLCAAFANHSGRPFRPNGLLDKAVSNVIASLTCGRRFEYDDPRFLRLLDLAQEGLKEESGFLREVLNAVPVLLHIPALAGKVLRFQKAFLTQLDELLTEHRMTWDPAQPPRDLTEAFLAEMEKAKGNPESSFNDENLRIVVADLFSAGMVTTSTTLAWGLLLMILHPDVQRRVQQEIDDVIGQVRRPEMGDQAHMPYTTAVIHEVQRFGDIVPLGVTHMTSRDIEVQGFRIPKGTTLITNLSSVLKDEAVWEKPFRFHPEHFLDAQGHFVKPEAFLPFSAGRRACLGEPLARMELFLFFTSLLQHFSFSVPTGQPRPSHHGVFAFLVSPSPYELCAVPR
Put plainly: CYP inhibition test (dextromethorphan O-demethylation). The format is in vitro ADME. Conditions: pooled human hepatic microsome, 5 μmol/L dextromethorphan. How it is done:
as §1, §2

Data set [1] addresses T5, CYP3A4 (Homo sapiens, UniProt P08684). The data set is described as follows: CYP inhibition test (terfenedine hydroxylation). In kind it is in vitro ADME. More on the design: enzyme, pooled human hepatic microsome 0.2 mg protein/mL; from tissue; host or cells: pooled human hepatic microsomes. Conditions: pooled human hepatic microsome, 1 μmol/L terfenedine. How it is done: as §1, §2

A further data set in a line: Solubility test. In kind it is physicochemical. To be noted: JP-I medium, pH 1.2, simulated gastric fluid, kinetic from dmso stock, from turbidity after 4 hours, read-out: solubility assessed by 3 stages. As to the method:
A 2-fold dilution series (12 points) of a 10 mM solution of a test compound in DMSO was added to a medium (JP-I, JP-II) (2%), and solubility was assessed by 3 stages (High; >40 μM, Medium; 3-40 μM, Low; <3 μM) from a turbidity after 4 hours (crystallization information).
The preparation method of solution was as follows: A 10 mM solution of the compound was prepared with DMSO, and 6 μL of the compound solution was added to 594 μL of an artificial intestinal juice (water and 118 mL of 0.2 mol/L NaOH reagent were added to 250 mL of 0.2 mol/L potassium dihydrogen phosphate reagent to reach 1000 mL) with a pH of 6.8. The mixture was left standing for 16 hours at 25° C., and the mixture was vacuum-filtered. The filtrate was two-fold diluted with methanol/water=1/1.

Another data set has as its target T6, Recombinant human BACE1 (Homo sapiens, UniProt P56817).
T6 construct: purchased R&D Systems
The data set is described as follows: Assay of BACE1 inhibiting activity. In kind it is biochemical. To be noted: Recombinant human BACE1 7.4 nM, substrate peptide 18 nM, pH 5.0, 30° C., 3 hours; read-out: IC50 (50% inhibitory concentration against the enzymatic activity). As to the method: 48.5 μL of substrate peptide solution (Biotin-XSEVNLDAEFRHDSGC-Eu: X=ε-amino-n-capronic acid, Eu=Europium cryptate) was added to each well of 96-hole half-area plate (a black plate: Corning Incorporated), and after addition of 0.5 μl of the test compound (dissolved in […]) and 1 μl of Recombinant human BACE1(R&D Systems), the reaction mixture was incubated at 30° C. for 3 hours. The substrate peptide was synthesized by reacting Cryptate TBPCOOH mono SMP (CIS bio international) with Biotin-XSEVNLDAEFRHDSGC (Peptide Institute, Inc.). […]
After the incubation for reaction, 50 μl of 8.0 μg/ml Streptavidin-XL665(CIS bio international) dissolved in phosphate buffer (150 mM K2HPO4—KH2PO4, pH 7.0, 0.008% Triton X-100, 0.8 M KF) was added to each well and left stand at 30° C. for an hour. After then, fluorescence intensity was measured (excitation wavelength: 320 nm, measuring wavelength: 620 nm and 665 nm) using Wallac 1420 multilabel counter (Perkin Elmer life sciences). Enzymatic activity was determined from counting ratio of each wavelength (10,000×Count 665/Count 620) and 50% inhibitory concentration against the enzymatic activity was calculated.

Data set [2] has as its system Neuroblastoma SH-SY5Y cells (SH/APPwt) with human wild-type β-APP excessively expressed. The data set is described as follows: Measurement of β-amyloid (Aβ) production inhibitory effect in cell. The format is cell-based. To be noted: 24 hours, Aβ 1-40 in culture supernatant by HTRF, read-out: IC50 (amount needed to inhibit Aβ production by 50%). How it is done:
Neuroblastoma SH-SY5Y cells (SH/APPwt) with human wild-type β-APP excessively expressed therein were prepared at 8×10^5 cells/mL, and 150 μl portions thereof were inoculated into respective wells of a 96-well culture plate (Falcon). The cells were cultured for 2 hours at 37° C. in a 5% gaseous carbon dioxide incubator. Then, a solution which had been preliminarily prepared by adding and suspending the test compound (DMSO (dimethyl sulfoxide) solution) so as to be 2 μl/50 μl medium was added to the cell sap. Namely, the final DMSO concentration was 1%, and the amount of the cell culture was 200 μl. After the incubation was performed for 24 hours from the addition of the test compound, 100 μl of the culture supernatant was collected from each fraction. The amount of the Aβ in each fraction was measured.
The Aβ amount was measured as follows. 10 μl of a homogeneous time resolved fluorescence (HTRF) measurement reagent (Amyloid-β 1-40 peptide; IBA Molecular Holding, S.A.) and 10 μl of the culture supernatant were put into a 384-well half area microplate (black microplate, Costar) and mixed with each other, and then left standing overnight at 4° C. while the light was shielded. Then, the fluorescence intensity (excitation wavelength: 337 nm, measurement wavelength: 620 nm and 665 nm) was measured with a Wallac 1420 multilabel counter (Perkin Elmer life sciences). […]
A general note: In TR-FRET formats the signal depends on donor and acceptor labels being close together.

Data set [3] is described as follows: Metabolism stability test. The format is in vitro ADME. To be noted: human liver microsomes 0.5 mg protein/mL, 1 mmol/L NADPH, 37° C., 30 minutes. As to the method:
Using a commercially available pooled human hepatic microsomes, a test compound was reacted for a constant time, a remaining rate was calculated by comparing a reacted sample and an unreacted sample, thereby, a degree of metabolism in liver was assessed.
A reaction was performed (oxidative reaction) at 37° C. for 0 minute or 30 minutes in the presence of 1 mmol/L NADPH in 0.2 mL of a buffer (50 mmol/L Tris-HCl pH 7.4, 150 mmol/L potassium chloride, 10 mmol/L magnesium chloride) containing 0.5 mg protein/mL of human liver microsomes. After the reaction, 50 μL of the reaction solution was added to 100 μL of a methanol/acetonitrile=1/1 (v/v), mixed and centrifuged at 3000 rpm for 15 minutes. The test compound in the supernatant was quantified by LC/MS/MS, and a remaining amount of the test compound after the reaction was calculated, letting a compound amount at 0 minute reaction time to be 100%.

For data set [4], the target named is T5, CYP3A4. Put plainly: CYP3A4 fluorescent MBI test. In kind it is in vitro ADME. More on the design: host or cells: Escherichia coli. Conditions: CYP3A4 expressed in Escherichia coli, substrate 7-BFC. How it is done:
The CYP3A4 fluorescent MBI test is a test of investigating enhancement of CYP3A4 inhibition of a compound by a metabolism reaction, and the test was performed using, as CYP3A4 enzyme expressed in Escherichia coli and employing, as an index, a reaction in which 7-benzyloxytrifluoromethylchmarin (7-BFC) is debenzylated by the CYP3A4 enzyme to produce a metabolite, 7-hydroxytrifluoromethylchmarin (HFC) emitting fluorescent light.
The reaction conditions were as follows: substrate, 5.6 μmol/L 7-BFC; pre-reaction time, 0 or 30 minutes; reaction time, 15 minutes; reaction temperature, 25° C. […]
An enzyme in a K-Pi buffer (pH 7.4) and a test drug solution as a pre-reaction solution were added to a 96-well plate at the composition of the pre-reaction, a part of it was transferred to another 96-well plate so that it was 1/10 diluted by a substrate in a K-Pi buffer, NADPH as a co-factor was added to initiate a reaction as an index (without preincubation) and, after a predetermined time of a reaction, acetonitrile/0.5 mol/L Tris (trishydroxyaminomethane)=4/1 was added to stop the reaction. […] For the plate on which each index reaction had been performed, a fluorescent value of 7-HFC which is a metabolite was measured with a fluorescent plate reader. […]

T5 sequence (P08684 whole entry): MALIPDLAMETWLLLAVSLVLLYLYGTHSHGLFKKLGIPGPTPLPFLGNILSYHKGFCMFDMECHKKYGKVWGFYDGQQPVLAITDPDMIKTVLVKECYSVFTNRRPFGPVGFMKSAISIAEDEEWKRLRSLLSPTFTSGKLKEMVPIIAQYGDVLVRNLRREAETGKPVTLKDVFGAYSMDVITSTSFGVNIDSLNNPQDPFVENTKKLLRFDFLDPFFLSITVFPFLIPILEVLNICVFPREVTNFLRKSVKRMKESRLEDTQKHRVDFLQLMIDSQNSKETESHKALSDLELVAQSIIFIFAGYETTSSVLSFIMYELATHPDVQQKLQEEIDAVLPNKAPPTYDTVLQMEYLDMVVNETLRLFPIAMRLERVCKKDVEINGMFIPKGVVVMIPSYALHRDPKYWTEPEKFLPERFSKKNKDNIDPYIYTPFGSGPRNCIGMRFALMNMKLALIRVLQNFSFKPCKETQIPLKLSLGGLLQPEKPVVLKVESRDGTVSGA
T2 sequence (P11712 whole entry): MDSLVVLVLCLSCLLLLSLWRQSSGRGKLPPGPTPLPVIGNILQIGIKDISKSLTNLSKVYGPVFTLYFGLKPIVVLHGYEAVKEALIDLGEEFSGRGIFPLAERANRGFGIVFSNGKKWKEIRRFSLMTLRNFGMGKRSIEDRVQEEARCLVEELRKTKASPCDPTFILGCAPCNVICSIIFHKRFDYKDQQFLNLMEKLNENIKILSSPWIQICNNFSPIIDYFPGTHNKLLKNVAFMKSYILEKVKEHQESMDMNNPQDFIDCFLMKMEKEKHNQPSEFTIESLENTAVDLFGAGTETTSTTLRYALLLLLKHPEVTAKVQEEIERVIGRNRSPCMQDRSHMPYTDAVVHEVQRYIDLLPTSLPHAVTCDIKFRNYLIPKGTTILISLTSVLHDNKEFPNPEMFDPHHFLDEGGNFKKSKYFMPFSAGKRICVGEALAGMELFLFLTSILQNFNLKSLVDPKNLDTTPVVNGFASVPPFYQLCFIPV
T6 sequence (P56817 46-501): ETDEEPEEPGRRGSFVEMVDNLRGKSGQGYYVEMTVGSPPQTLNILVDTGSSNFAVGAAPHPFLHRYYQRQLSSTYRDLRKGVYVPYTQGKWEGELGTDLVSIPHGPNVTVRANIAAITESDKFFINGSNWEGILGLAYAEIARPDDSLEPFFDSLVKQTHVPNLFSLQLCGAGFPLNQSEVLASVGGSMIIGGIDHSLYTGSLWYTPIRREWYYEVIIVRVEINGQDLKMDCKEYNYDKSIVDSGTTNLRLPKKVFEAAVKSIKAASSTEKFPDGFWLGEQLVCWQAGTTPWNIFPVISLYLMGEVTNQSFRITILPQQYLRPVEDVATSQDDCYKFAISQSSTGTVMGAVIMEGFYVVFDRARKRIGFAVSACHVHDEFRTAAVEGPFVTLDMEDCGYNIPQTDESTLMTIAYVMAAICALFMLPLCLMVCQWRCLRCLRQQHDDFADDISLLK

For `COCCNC(=O)C1=C[C@@](C)(c2cc(NC(=O)c3ccc(C#N)cn3)ccc2F)N=C(N)S1` [Compound I-2], the IC50 against CYP1A2, at CYP2C9, at CYP2C19, against CYP2D6 and at CYP3A4 [1] was over 21 µM throughout.

Take `C[C@@]1(c2cc(NC(=O)c3ccc(C#N)cn3)ccc2F)C=C(CO)SC(N)=N1` [Compound I-6]: the solubility at 4 h in “Solubility test” was over 40 µM.

For the molecule `CCC1=C[C@@](C)(c2cc(NC(=O)c3ccc(C#N)cn3)ccc2F)N=C(N)S1` [Compound I-8], the IC50 worked out at 0.012 µM at Recombinant human BACE1 and 0.002 µM in data set [2].

On to `COc1cnc(C(=O)Nc2ccc(F)c([C@]3(C)C=C(C(C)(C)O)SC(N)=N3)c2)cn1` [Compound I-19], for which the “remaining amount of the test compound after the reaction” value in data set [3] was 96.4%.

Turning to `C[C@@]1(c2cc(NC(=O)c3ccc(C#N)cn3)ccc2F)C=C(c2ccccn2)SC(N)=N1` [Compound I-20], the “CYP3A4 MBI: difference between IC50 values (pre-reaction time 0 or 30 minutes)” value at CYP3A4 [4] was “(−) (when the difference is 3 μM or less, this was defined as (−))”.

A word on the solubility: it is the concentration that dissolves in the medium under given conditions.
